One compound from patent US20130137644A1, “CELL PENETRATING PEPTIDE CONJUGATES FOR DELIVERING OF NUCLEIC ACIDS INTO A CELL” (priority 2005, published 2013) can be followed below.

A short description of this data set: Body weight evolution, apparent toxicity during the efficacy experiment. It is filed as in vivo, NMRI nude mice. As to conditions: 48.15 μmol/kg i.v. Q1D5; course of experiment 80 days. The protocol: Animal experiments were performed according to ethical guidelines of animal experimentation. The day of the first injection (6 days after the graft), mice were randomized in 7 groups. Mice were treated by intravenous injection in the lateral tail vein at a constant volume of 10 microL/g. Groups were as follows:
During the course of experiment body weight and tumor size were controlled every 2 or 3 days (except weekends). […] Mortality of animals was recorded every day except the weekend.
During the efficacy experiment, body weight was monitored twice weekly. Treatment toxicity was assessed based on clinical signs and body weight evolution.

Regarding `CCc1c2c(nc3ccc(OC(=O)N4CCC(N5CCCCC5)CC4)cc13)-c1cc3c(c(=O)n1C2)COC(=O)[C@]3(O)CC` [irinotecan, Irinotecan], the body weight loss is around 20%.
